Reference: PubChem BioAssay AID1996
Values after ≈ are worked out from the molar mass of the structure shown.

details: buffer; pH 7.4; 200.0 µM

Row | SMILES | solubility kinetic
1 | CCN1CCc2c(OCC(=O)N3CCc4ccccc43)cccc2C1=O | > 52.6 µg/mL
2 | CC(C(=O)Nc1ccc(S(=O)(=O)N2CCCC2)cc1)N1CCN(c2ccccc2O)CC1 (configuration not stated) | 12.6 µg/mL (≈ 27.5 µM)
3 | Cc1cc(NC(=O)COc2ccccc2C#N)no1 | 11.2 µg/mL (≈ 43.5 µM)
4 | Cc1cccc(NC(=O)Cc2c(F)cccc2Cl)n1 | > 41.8 µg/mL
5 | COc1ccc(CN2CCCCCC2)cc1OC | 21.6 µg/mL (≈ 86.6 µM)
6 | Cc1ccc(C(C[N+](=O)[O-])Sc2ccc(N)cc2)cc1 (configuration not stated) | 21.4 µg/mL (≈ 74.2 µM)
7 | COc1cccc(/C=C(\C#N)c2nc3ccccc3[nH]2)c1OCC(=O)O | > 52.4 µg/mL
8 | CCO.C[C@H]1c2cccc(O)c2C(O)=C2C(=O)[C@]3(O)C(O)=C(C(N)=O)C(=O)[C@@H](N(C)C)[C@@H]3[C@@H](O)[C@@H]21.Cl.O | > 76.9 µg/mL
9 | C=CCNC(=O)C1CCC(=O)N1S(=O)(=O)c1ccc(C)cc1 (configuration not stated) | > 48.4 µg/mL
10 | c1ccc(Oc2nc(-c3ccccn3)nc3ccccc23)cc1 | 43.1 µg/mL (≈ 144 µM)
11 | O=C(NC1CCOc2ccccc21)c1ccccn1 (configuration not stated) | 36.1 µg/mL (≈ 142 µM)
12 | CNc1nc2c(c(=O)[nH]c(=O)n2C)n1CCCc1ccccc1 | > 47 µg/mL
13 | CC(=O)N(Cc1cc(=O)[nH]c2ccccc12)c1ccc(C)cc1C | > 48.1 µg/mL
14 | NS(=O)(=O)c1ccc(CCNc2ccccc2[N+](=O)[O-])cc1 | 2.9 µg/mL (≈ 9.02 µM)
15 | O=[N+]([O-])c1cc(C(F)(F)F)ccc1NCCc1ccncc1 | 1.6 µg/mL (≈ 5.14 µM)
16 | Cl.O=C(NN1C(=O)CSC1=S)c1cccnc1 | > 43.5 µg/mL
17 | NC(=O)C1CCN(c2ncccc2[N+](=O)[O-])CC1 | > 37.5 µg/mL
18 | COc1ccc2cc(S(=O)(=O)N3CCCC(C)C3)ccc2c1 (configuration not stated) | < 0.7 µg/mL
19 | Cc1ccc(CNc2cc(C(=O)O)ccc2C)s1 | > 39.2 µg/mL
20 | OCC1(Cc2ccccc2)CCCN(C2CCCC2)C1 (configuration not stated) | 34.1 µg/mL (≈ 125 µM)
21 | O=S(=O)(c1cccc(C(F)(F)F)c1)c1ccc(O)cn1 | 41.1 µg/mL (≈ 136 µM)
22 | O=C(OCC(=O)N1CCCC1)c1ccccc1O | 36.1 µg/mL (≈ 145 µM)
23 | COc1ccc(NC(=O)CN(C)CC(=O)N(CC(C)C)c2c(N)n(CC(C)C)c(=O)[nH]c2=O)cc1 | > 73.3 µg/mL
24 | O=c1oc2ccccc2c(Nc2ccc(Cl)cc2)c1[N+](=O)[O-] | 0.9 µg/mL (≈ 2.84 µM)

Row | SMILES | solubility kinetic
25 | COc1cccc(C(=O)CC(=O)C(=O)Nc2cccc([N+](=O)[O-])c2C)c1 | 31.6 µg/mL (≈ 88.7 µM)
26 | CC(=O)c1c(C)nc(Nc2nc(C)c3cc(C)ccc3n2)nc1C | > 48.2 µg/mL
27 | O=C(O)Cc1c[nH]c2ccccc12 | > 26.3 µg/mL
28 | CC(C)N1CC(C(=O)Nc2ccc(Cl)c(Cl)c2)CC1=O (configuration not stated) | > 47.3 µg/mL
29 | Cc1cc(C)n(-c2ccc(C(=O)N3CC(C)OC(C)C3)cc2)n1 (configuration not stated) | > 47 µg/mL
30 | O=C(NCC(c1ccco1)N1CCCCC1)c1cccs1 (configuration not stated) | > 45.7 µg/mL
31 | CCCCOc1ccc(C(=O)NCCC(=O)NCCCC(=O)OCC)cc1 | > 56.8 µg/mL
32 | O=C(Cc1cccs1)N1CCN=C1SCc1ccc(F)cc1 | 26 µg/mL (≈ 77.7 µM)
33 | Cc1ccccc1CC(=O)NCc1cccnc1 | > 36 µg/mL
34 | CC[C@H](C)[C@H](NC(=O)c1ccc(Cl)cc1)C(=O)OCC(=O)c1c(N)n(C)c(=O)n(C)c1=O | 27.7 µg/mL (≈ 59.6 µM)
35 | CCN(CC)S(=O)(=O)c1ccc(C(=O)NC2=NCCS2)cc1 | 2.3 µg/mL (≈ 6.74 µM)
36 | O=C1C2CCCN2C(c2ccco2)N1c1ccc(F)cc1 (configuration not stated) | > 42.9 µg/mL
37 | Cc1cccc(C)c1NC1=NCCCCC1 | > 32.4 µg/mL
38 | C=Cn1ccnc1P(O)(=S)c1nc(C)c(CCOC(C)=O)s1 (configuration not stated) | 43.1 µg/mL (≈ 121 µM)
39 | COc1ccccc1CC(=O)NC1CCCCCC1 | 37.6 µg/mL (≈ 144 µM)
40 | Cn1cccc1C(=O)OCC(=O)N1CCN(c2ccccc2)CC1 | 48.7 µg/mL (≈ 149 µM)
41 | O=C1c2ccc(Oc3ccc([N+](=O)[O-])cc3)cc2C(=O)N1CCCO | 49 µg/mL (≈ 143 µM)
42 | O=[N+]([O-])c1ccc2c(c1)nc1n2CCN(CC2CCCO2)C1 (configuration not stated) | 41.1 µg/mL (≈ 136 µM)
43 | Cc1nc(NC(=O)COC(=O)c2ccc(CO)cc2)c(Cl)cc1Cl | 21.9 µg/mL (≈ 59.3 µM)
44 | Cc1cc(CNC(=O)Cc2ccc(F)cc2)c2ccccc2n1 | > 46.3 µg/mL
45 | Oc1ccc(/C=N/N2CCCCC2)cc1O | > 33 µg/mL
46 | COc1cccc(OC)c1OCCOCCN1CCN(C)CC1 | 48.6 µg/mL (≈ 150 µM)
47 | COc1cccc(C(=O)NCCSc2c(C)[nH]c3ccccc23)c1OC | 16.1 µg/mL (≈ 43.5 µM)
48 | COc1ccc(CCNCC2CCCO2)cc1.Cl (configuration not stated) | 35.2 µg/mL

Row | SMILES | solubility kinetic
49 | CCOC(=O)CN1C(=O)C(=O)N(Cc2cccc(C)c2)C1=O | > 45.6 µg/mL
50 | CC(=O)c1ccc(NS(=O)(=O)c2ccc3c(c2)CCC(=O)N3)cc1 | 48.3 µg/mL (≈ 140 µM)
51 | O=C(CNC(=O)c1ccccc1F)OCc1nc2ccccc2s1 | 48.6 µg/mL (≈ 141 µM)
52 | O=[N+]([O-])c1cc2c(cc1CN1CCN(c3ccccc3F)CC1)OCO2 | 1.1 µg/mL (≈ 3.06 µM)
53 | COc1cc(CC(=O)OCC(=O)NC(C)c2ccccc2)cc(OC)c1OC (configuration not stated) | > 58.1 µg/mL
54 | N=C1c2ccccc2CN1c1cccc([N+](=O)[O-])c1 | > 38 µg/mL
55 | COc1cc(Cl)c(C)cc1NC(=O)CC1CCCC1 | 2 µg/mL (≈ 7.1 µM)
56 | CC1=NCCN1CCNC(=O)Nc1cc(C)cc(C)c1 | 40 µg/mL (≈ 146 µM)
57 | CN(C)c1ccc(/C=C/C(=O)c2ccc(O)cc2)cc1[N+](=O)[O-] | 1.2 µg/mL (≈ 3.84 µM)
58 | Cc1ccc(-c2csc(NC(=O)c3c(C)noc3C)n2)cc1 | 6.4 µg/mL (≈ 20.4 µM)
59 | c1ccc2c(c1)CCc1c-2nc2ccccc2c1N1CCOCC1 | 10.5 µg/mL (≈ 33.2 µM)
60 | CC(=O)c1c(C)[nH]c(C(=O)OCC(=O)c2ccc3c(c2)NC(=O)CO3)c1C | 10.5 µg/mL (≈ 28.4 µM)
61 | CC(=O)Nc1nc2ccccc2n1Cc1ccccc1Cl | 5.2 µg/mL (≈ 17.3 µM)
62 | O=C(CSC(=S)N1CCCCC1)Nc1ncc2c(n1)CCCC2=O | 11.3 µg/mL (≈ 31 µM)
63 | NCCc1nnc(SCC(=O)Nc2cccc(Cl)c2)o1 | > 46.9 µg/mL
64 | CC1CC1C(=O)N(C)CC(=O)Nc1cccc(F)c1 (configuration not stated) | > 39.6 µg/mL
65 | CN1CCC(N(C)S(=O)(=O)c2ccc(F)cc2F)CC1 | > 45.7 µg/mL
66 | Cc1ccc(C2N3CCCN23)cc1 (configuration not stated) | > 26.1 µg/mL
67 | CC(Sc1nncn1C)C(=O)NCCC1=CCCCC1 (configuration not stated) | > 44.2 µg/mL
68 | O=C(NCN1CCOCC1)c1cnccn1 | 30.6 µg/mL (≈ 138 µM)
69 | CC1CCCN(CC(=O)Nc2ccc(S(=O)(=O)N3CCCC3)cc2)C1 (configuration not stated) | > 54.8 µg/mL
70 | CCN1CCN(Cc2nnc(-c3ccc(C)cc3)o2)CC1 | > 43 µg/mL
71 | NC(=O)c1ccsc1NC(=O)COC(=O)c1cccnc1Cl | 4.7 µg/mL (≈ 13.8 µM)
72 | NC(=O)c1nn(CC(=O)Nc2ccc3c(c2)OCO3)cc1[N+](=O)[O-] | > 50 µg/mL

Row | SMILES | solubility kinetic
73 | COc1ccc(CCC(=O)NC2CCC(C)CC2)cc1 (configuration not stated) | 22.2 µg/mL (≈ 80.6 µM)
74 | CC(C)n1cc(/C(N)=N/O)c(=O)n(Cc2ccccc2)c1=O | > 45.3 µg/mL
75 | COc1cccc(NC(=O)CN(C)C(=O)c2cc(C)on2)c1 | > 45.5 µg/mL
76 | COC(=O)c1ccc(/C=C/C(=O)OCC(=O)Nc2sccc2C(N)=O)cc1 | 3.9 µg/mL (≈ 10 µM)
77 | CCOc1ccc(-c2noc(-c3cccnc3)n2)cc1OCC | 2.2 µg/mL (≈ 7.07 µM)
78 | CCC(=O)Nc1ccc(S(=O)(=O)N2CCc3ccccc32)cc1 | 41.2 µg/mL (≈ 125 µM)
79 | CCCn1c(N)c(N2CCCCC2)c(=O)n(CC(=O)Nc2ccc(C(C)=O)cc2)c1=O | 14.8 µg/mL (≈ 34.6 µM)
80 | COc1cc2c(cc1OC)C(c1cccc(Br)c1)NC(=O)C2 (configuration not stated) | 43 µg/mL (≈ 119 µM)
81 | CCC(C)NC(=O)CSc1ncnc2sccc12 (configuration not stated) | > 42.2 µg/mL
82 | O=C(Nc1ccccc1)c1ccc(OC(=O)c2ccccc2)cc1 | < 0.7 µg/mL
83 | CCOC(=O)CCn1c(=S)n(CCC(=O)OCC)c2ccccc21 | 49.5 µg/mL (≈ 141 µM)
84 | Cc1cc(C(=O)NCCc2ccc(S(N)(=O)=O)cc2)c(C)o1 | > 48.4 µg/mL
85 | Cc1cc(C(=O)Nc2ccc(Br)cn2)sc1C | 2.2 µg/mL (≈ 7.07 µM)
86 | Cc1[nH]c2c(C)cccc2c(=O)c1CN1CCCCCC1 | 39.5 µg/mL (≈ 139 µM)
87 | CCC(C)NC(=O)c1ccc(CSCc2ccccc2Cl)o1 (configuration not stated) | 30.7 µg/mL (≈ 90.9 µM)
88 | O=C(NCCO)/C(=C/c1cccc([N+](=O)[O-])c1)NC(=O)c1ccco1 | > 51.8 µg/mL
89 | O=C(O)c1ccc(S(=O)(=O)NCC2CCCO2)cc1 (configuration not stated) | 34.7 µg/mL (≈ 122 µM)
90 | CCC(C)n1c(O)c(C=NCc2cccnc2)c(=O)[nH]c1=S (configuration not stated) | 44.8 µg/mL (≈ 141 µM)
91 | C=CCN1C(=O)NC(=O)/C(=C/c2ccc(OCC(=O)Nc3ccc(C)cc3)cc2)C1=O | > 62.9 µg/mL
92 | CC(C)N1CC(C(=O)Nc2ccc(F)c(Cl)c2)CC1=O (configuration not stated) | > 44.8 µg/mL
93 | COC(=O)c1scc(C)c1NC(=O)CSc1ccc(Cl)cc1 | 1.3 µg/mL (≈ 3.65 µM)
94 | CC(Oc1cccnc1[N+](=O)[O-])C(=O)Nc1ccc(F)cc1 (configuration not stated) | > 45.8 µg/mL
95 | O=C(Nc1ccc(Br)cc1)c1ccc2ncsc2c1 | 7.9 µg/mL (≈ 23.7 µM)
96 | COc1cccc(NC(=S)N2CCC(c3ccc(C)cc3)C2)c1 (configuration not stated) | 6.9 µg/mL (≈ 21.1 µM)

Row | SMILES | solubility kinetic
97 | COC(=O)c1sccc1NC(=O)c1ccc(Cl)cc1 | < 0.6 µg/mL
98 | Br.CCn1c2c(c(=N)c3c1CCC3)CCCC2 | > 44.6 µg/mL
99 | COc1ccc(OC)c(N=Cc2c(O)c3ccccc3oc2=O)c1 | 3.6 µg/mL (≈ 11.1 µM)
100 | O=C(O)CCC(=O)Nc1cc(C(F)(F)F)cc(C(F)(F)F)c1 | 43.6 µg/mL (≈ 132 µM)
101 | Cc1ccc(NC(=O)C(=O)c2ccc(C)cc2)cc1 | 0.7 µg/mL (≈ 2.76 µM)
102 | Cc1ccc(-c2nc(-c3ccncc3)no2)cc1C | 0.7 µg/mL (≈ 2.79 µM)
103 | CN[C@@H]1CC[C@H](c2ccc(Cl)c(Cl)c2)c2ccccc21 | 28.8 µg/mL (≈ 94 µM)
104 | CCOC(=O)c1ccc(S(=O)(=O)N2CCN(CCc3ccncc3)CC2)cc1 | > 60.5 µg/mL
105 | Cc1ccc(CN2C(=O)CSC2c2ccc(F)cc2)cc1 (configuration not stated) | 16.8 µg/mL (≈ 55.7 µM)
106 | COc1ccc(OC)c(C(=O)COC(=O)c2cccnc2Cl)c1 | > 50.4 µg/mL
107 | CCCN1CNc2c(c(=O)[nH]c(=S)n2-c2ccccc2Cl)C1 | > 50.5 µg/mL
108 | Oc1c(C=Nc2cccc3nsnc23)ccc2ccccc12 | 19.3 µg/mL (≈ 63.2 µM)
109 | CCOC(=O)Cn1nc(C)n(-c2ccc(F)cc2)c1=O | > 41.9 µg/mL
110 | O=C(Nc1cc2c3c(c1)CC(=O)N3CCC2)c1ccc(Cl)cc1 | 6.6 µg/mL (≈ 20.2 µM)
111 | O=C(CN1CCCC1)Nc1ccc(Cl)cc1C(F)(F)F | 22.3 µg/mL (≈ 72.7 µM)
112 | CCOc1ccc(C(=O)OCC(=O)Nc2cccnc2Cl)cc1OCC | 19 µg/mL (≈ 50.2 µM)
113 | NC(=NCc1ccco1)NC(=O)c1ccccc1 | > 36.5 µg/mL
114 | Cc1c(CNCCc2ccccc2)c(C(=O)O)c(C)n1-c1ccccc1 | > 52.3 µg/mL
115 | C=CCNc1nc(N)c([N+](=O)[O-])c(NCCO)n1 | > 38.1 µg/mL
116 | Cc1ccc(C(=O)NCC(=O)OC2CCCCC2=O)cc1C (configuration not stated) | > 45.5 µg/mL
117 | CNCc1ccccc1Sc1ccc(O)c(O)c1.O=C([O-])/C=C\C(=O)[O-] | 31.5 µg/mL
